Source: patent US20260327655A1, “SMALL-MOLECULE REGULATED ALTERNATIVE SPLICING” (priority 2023, published 2026)

Columns and labels:
RS1-10 = assay: In vivo mouse study of RS1-10 activation (AAV-PHP.eB, bioluminescent imaging); set-up: species or system C57BL/6 mice; conditions: 10 mg/kg single oral gavage
Protocol: C57BL/6 mice underwent tail vein injection of 3.00E+11 vector (depicted in FIG. 11A) genomes/mouse AAV vector composed of a genome containing a cloned human Synapsin promoter driving the expression of a Firefly Luciferase gene. Expression of the luciferase gene was gated by the RS1-10 switch. The AAV vector utilized a brain-penetrant AAV-PHP.eB capsid (FIG. 11A). At approximately 3 weeks after AAV delivery, mice were either dosed with compound vehicle or 10 mg/kg 24 A as a single oral gavage. 6 hours after the oral dosing, mice were intraperitoneally administered D-Luciferin (150 mg/kg), anesthetized, and imaged with a bioluminescent imaging (BLI) system to analyze activation of RS1-10. Light flux from expressed Firefly Luciferase was measured from the whole body of each mouse as radiance and a brightfield image was also taken as an anatomical reference (FIG. 11B). […]
C57BL/6 mice underwent tail vein injection of 3.00E+11 vector genomes/mouse AAV vector composed of a genome containing a cloned human Synapsin promoter driving the expression of a Firefly Luciferase gene. […] Light flux from expressed Firefly Luciferase was measured from the whole body of each mouse as radiance and a brightfield image was also taken as an anatomical reference. […]

RS1-10 and RS1-X1 = assay: Luminescence of RS1-10 and RS1-X1 in HEK-293T cells; type: cell-based, human; conditions: 85 nM, 24 hours, RS1-X1 vs RS1-10, FIG. 8B
Protocol: A plasmid pool that was transfected into HEK-293T cells was treated for 24 hours with splice modulator 24 A at a concentration of 85 nM. RS1-10 was the starting minigene sequence and a variant switch sequence was identified from the switch sequence screen containing a 28 nucleotide intronic deletion compared to the RS1-10 sequence. […]. RS1-10 controlling a firefly luciferase gene or RS1-X1 controlling a firefly luciferase gene were cloned into individual expression plasmids containing a CMV promoter. HEK 293T cells were transfected with either the RS1-10 or RST-XT expression plasmid and were then treated for 24 hours with 85 nM 24 A while incubated in a tissue culture incubator (37° C., 5% CO2). The luminescence was measured as an endpoint analysis by adding 100 μL of a Luciferase substrate, such as Steady-Luc Firefly Luciferase substrate, to each well of the assay plate. The liquid contents of each well was transferred to a 96-well plate, mixed again for 2 min on an orbital shaker, and incubated at room temperature for 5 min. Finally, the luminescent signal from each well was measured with a plate reader (FIG. 8B).

## CCN1CC(c2ccc(-c3ccc(-c4ccc5nn(C)cc5c4)cc3O)nn2)C1 [Compound 24A, 2-[6-(1-ethylazetidin-3-yl)pyridazin-3-yl]-5-(2-methyl-2H-indazol-5-yl)phenol]
RS1-10; 6 hours post dose, ~3 weeks after AAV delivery, vs vehicle
  light flux from the heads of mice (bioluminescent imaging): Significant increases in light flux
RS1-10; 7 days post dose
  bioluminescent signal after drug washout: No significant signal was detected
RS1-10 and RS1-X1
  luminescence (RLU): RS1-X1 produced a higher luminescence (RLU) than RS1-10
